Test results taken from ChEMBL document CHEMBL4765304, “Synthesis and anticancer activity of thiourea derivatives bearing a benzodioxole moiety with EGFR inhibitory activity, apoptosis assay and molecular docking study” (Eur J Med Chem, 2020).
pIC50: −log10 of the molar value.

Columns and labels:
HCT-116 = assay: Cytotoxicity against human HCT-116 cells assessed as reduction in cell viability by SRB assay; assay type: functional, cell-based
HepG2 [1] = assay: Cytotoxicity against human HepG2 cells assessed as reduction in cell viability by SRB assay; assay type: functional, cell-based
WI-38 = assay: Cytotoxicity against human WI-38 cells assessed as reduction in cell viability by SRB assay; assay type: cell-based
[2] = target: Epidermal growth factor receptor (Homo sapiens, UniProt P00533); assay: Inhibition of EGFR (unknown origin) by FRET assay
MCF7 = assay: cells; details: Homo sapiens
Description: Cytotoxicity against human MCF7 cells assessed as reduction in cell viability by SRB assay

HepG2 [3] = assay: Induction of apoptosis in human HepG2 cells assessed as early apoptotic cells at 5 uM incubated for 24 hrs by annexin V-FITC and PI staining based flow cytometry analysis (reference value: 0.87 %); assay type: functional
HepG2 [4] = assay: Induction of apoptosis in human HepG2 cells assessed as late apoptotic cells at 5 uM incubated for 24 hrs by annexin V-FITC and PI staining based flow cytometry analysis (reference value: 0.56 %); assay type: functional
HepG2 [5] = assay: Induction of apoptosis in human HepG2 cells assessed as necrotic cells at 5 uM incubated for 24 hrs by annexin V-FITC and PI staining based flow cytometry analysis (reference value: 0.43 %); assay type: functional
HepG2 [6] = assay: Induction of apoptosis in human HepG2 cells at 5 uM incubated for 24 hrs by annexin V-FITC and PI staining based flow cytometry analysis (reference value: 1.86 %); assay type: functional
HepG2 [7] = assay: Induction of cell cycle arrest in human HepG2 cells assessed as G0/G1 phase accumulation by flow cytometry analysis (reference value: 57.36 %); assay type: functional
HepG2 [8] = assay: Induction of cell cycle arrest in human HepG2 cells assessed as S phase accumulation by flow cytometry analysis (reference value: 36.22 %); assay type: functional
HepG2 [9] = assay: Induction of cell cycle arrest in human HepG2 cells assessed as G2/M phase accumulation by flow cytometry analysis (reference value: 6.32 %); assay type: functional
HepG2 [10] = assay: Induction of cell cycle arrest in human HepG2 cells assessed as preG1 phase accumulation by flow cytometry analysis (reference value: 1.86 %); assay type: functional
HepG2 [11] = assay: Induction of apoptosis in human HepG2 cells assessed as Bax level (reference value: 27.35 pg/ml); assay type: functional
HepG2 [12] = assay: Induction of apoptosis in human HepG2 cells assessed as Bcl2 level (reference value: 6.639 pg/ml); assay type: functional

Epidermal growth factor receptor, sequence (P00533 whole entry): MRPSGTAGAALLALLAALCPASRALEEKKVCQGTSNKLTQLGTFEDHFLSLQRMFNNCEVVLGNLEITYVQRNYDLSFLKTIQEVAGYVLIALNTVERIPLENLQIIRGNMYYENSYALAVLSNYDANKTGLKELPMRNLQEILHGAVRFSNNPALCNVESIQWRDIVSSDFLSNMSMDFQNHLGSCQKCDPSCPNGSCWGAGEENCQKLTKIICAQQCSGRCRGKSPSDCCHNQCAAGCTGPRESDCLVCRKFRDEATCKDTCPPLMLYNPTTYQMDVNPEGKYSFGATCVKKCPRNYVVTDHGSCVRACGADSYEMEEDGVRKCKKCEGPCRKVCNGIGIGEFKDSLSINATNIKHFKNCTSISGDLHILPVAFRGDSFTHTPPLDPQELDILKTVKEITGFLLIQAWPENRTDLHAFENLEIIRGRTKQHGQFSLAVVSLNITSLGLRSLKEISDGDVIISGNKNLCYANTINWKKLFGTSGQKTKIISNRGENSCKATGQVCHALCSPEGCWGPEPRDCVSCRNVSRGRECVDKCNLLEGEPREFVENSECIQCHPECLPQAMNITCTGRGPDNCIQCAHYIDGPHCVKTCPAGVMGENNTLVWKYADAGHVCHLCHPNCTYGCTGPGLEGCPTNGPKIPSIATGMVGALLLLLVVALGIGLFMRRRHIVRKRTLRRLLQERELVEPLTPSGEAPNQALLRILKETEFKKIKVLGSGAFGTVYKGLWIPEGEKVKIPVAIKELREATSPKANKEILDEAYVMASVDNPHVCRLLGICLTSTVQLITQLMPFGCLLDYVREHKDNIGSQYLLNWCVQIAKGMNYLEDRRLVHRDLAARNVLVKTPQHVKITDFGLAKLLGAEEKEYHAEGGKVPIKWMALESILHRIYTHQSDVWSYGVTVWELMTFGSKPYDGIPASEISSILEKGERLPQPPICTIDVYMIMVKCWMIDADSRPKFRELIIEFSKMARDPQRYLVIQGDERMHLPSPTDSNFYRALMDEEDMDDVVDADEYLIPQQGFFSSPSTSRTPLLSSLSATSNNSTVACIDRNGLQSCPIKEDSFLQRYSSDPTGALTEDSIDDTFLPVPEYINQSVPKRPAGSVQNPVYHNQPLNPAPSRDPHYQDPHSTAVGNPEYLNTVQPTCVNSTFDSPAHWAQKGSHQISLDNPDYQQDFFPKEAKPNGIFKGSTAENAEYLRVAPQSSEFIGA

Row | pIC50 [2] | pIC50 (MCF7) | Structure (SMILES) | pIC50 (HCT-116) | pIC50 (HepG2 [1]) | pIC50 (WI-38) | Activity (HepG2 [3]) [%] | Activity (HepG2 [4]) [%] | Activity (HepG2 [5]) [%] | Activity (HepG2 [6]) [%] | Activity (HepG2 [7]) [%] | Activity (HepG2 [8]) [%] | Activity (HepG2 [9]) [%] | Activity (HepG2 [10]) [%] | Activity (HepG2 [11]) [pg/mL] | Activity (HepG2 [12]) [pg/mL]
1 | 5.08 | 5.15 | S=C(NNc1ccccc1)Nc1ccc2c(c1)OCO2 | 5.95 | 5.76 | 3.57 | – | – | – | – | – | – | – | – | – | –
2 | – | 3.75 | O=C(c1ccccc1)c1ccccc1NC(=S)Nc1ccc2c(c1)OCO2 | 3.77 | 3.78 | 3.36 | – | – | – | – | – | – | – | – | – | –
3 | – | 4.76 | O=S(=O)(NNC(=S)Nc1ccc2c(c1)OCO2)c1ccccc1 | 5.00 | 4.93 | 3.68 | – | – | – | – | – | – | – | – | – | –
4 | 6.31 | 5.33 | S=C(Nc1ccc2c(c1)OCO2)Nc1c2ccccc2nc2ccccc12 | 5.77 | 5.67 | 3.64 | 6.14 | 8.68 | 2.43 | 17.25 | 37.12 | 25.52 | 37.36 | 17.25 | 201.7 | 4.147
5 | 6.00 | 4.97 | S=C(NN=C(c1ccccc1)c1ccccc1)Nc1ccc2c(c1)OCO2 | 5.62 | 5.24 | 3.72 | – | – | – | – | – | – | – | – | – | –
6 | – | 4.16 | O=C1c2ccccc2C(=O)N1NC(=S)Nc1ccc2c(c1)OCO2 | 4.26 | 4.23 | 3.54 | – | – | – | – | – | – | – | – | – | –
7 | 5.79 | 4.93 | O=S(=O)(Nc1nccs1)c1ccc(NC(=S)Nc2ccc3c(c2)OCO3)cc1 | 5.60 | 5.52 | 3.70 | – | – | – | – | – | – | – | – | – | –
8 | – | 4.60 | O=C(NNC(=S)Nc1ccc2c(c1)OCO2)c1ccncc1 | 5.25 | 4.94 | 3.74 | – | – | – | – | – | – | – | – | – | –
9 | 6.45 | 4.77 | Cc1c(NC(=S)Nc2ccc3c(c2)OCO3)c(=O)n(-c2ccccc2)n1C | 5.50 | 5.42 | 3.75 | 7.28 | 10.62 | 2.53 | 20.43 | 29.15 | 30.21 | 40.64 | 20.43 | 215.8 | 3.374
10 | – | 3.99 | NS(=O)(=O)c1ccc(NC(=S)Nc2ccc3c(c2)OCO3)cc1 | 4.06 | 4.02 | 3.49 | – | – | – | – | – | – | – | – | – | –
11 | – | 3.80 | N=C(N)NS(=O)(=O)c1ccc(NC(=S)Nc2ccc3c(c2)OCO3)cc1 | 3.90 | 3.88 | 3.44 | – | – | – | – | – | – | – | – | – | –
12 | 5.72 | 4.87 | O=S(=O)(Nc1ccccn1)c1ccc(NC(=S)Nc2ccc3c(c2)OCO3)cc1 | 5.32 | 5.15 | 3.72 | – | – | – | – | – | – | – | – | – | –
